Columns and labels:
[1] = molecular target: Estrogen receptor (Bos taurus) (UniProt Q9XSB5+P49884); assay: Displacement of 17-beta-[3H]-estradiol from Estrogen receptor of calf uterine cytosol at 20 uM; assay type: protein assay
Estrogen receptor = molecular target: T1, Estrogen receptor (Homo sapiens, UniProt P03372); assay: Agonist activity in transcriptional activation assay in MCF-7-2a cells compared to estradiol E2; assay type: functional, cell-based
T1 sequence (P03372 whole entry): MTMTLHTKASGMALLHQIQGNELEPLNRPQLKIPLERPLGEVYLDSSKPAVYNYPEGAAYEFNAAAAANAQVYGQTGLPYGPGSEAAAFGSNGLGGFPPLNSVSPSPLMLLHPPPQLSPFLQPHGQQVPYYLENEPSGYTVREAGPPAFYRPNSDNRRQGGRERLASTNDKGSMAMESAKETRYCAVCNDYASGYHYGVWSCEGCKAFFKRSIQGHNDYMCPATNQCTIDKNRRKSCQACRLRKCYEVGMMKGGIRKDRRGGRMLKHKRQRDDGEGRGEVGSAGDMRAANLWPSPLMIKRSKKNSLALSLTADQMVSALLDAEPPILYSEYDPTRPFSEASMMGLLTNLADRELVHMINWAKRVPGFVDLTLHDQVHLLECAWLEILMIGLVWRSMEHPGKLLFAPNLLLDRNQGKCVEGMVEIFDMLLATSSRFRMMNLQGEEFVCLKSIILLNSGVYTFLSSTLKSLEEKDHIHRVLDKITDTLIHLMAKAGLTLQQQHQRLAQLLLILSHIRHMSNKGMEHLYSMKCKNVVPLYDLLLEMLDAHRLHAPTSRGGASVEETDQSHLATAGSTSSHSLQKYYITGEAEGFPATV

Structure (SMILES)	Control [1] [%]	EC50 (Estrogen receptor) [µM]
Oc1ccc([C@@H]2N=CN[C@@H]2c2c(Cl)cc(O)cc2Cl)c(F)c1	40.1	0.62
Cc1cc(O)ccc1[C@H]1N=CN[C@H]1c1ccc(O)cc1C	0	–
Oc1ccc([C@H]2NC=N[C@H]2c2ccc(O)cc2Cl)c(Cl)c1	44	0.38
Oc1ccc([C@@H]2N=CN[C@@H]2c2c(Cl)cc(O)cc2Cl)c(Cl)c1	70.3	0.065
Oc1ccc([C@H]2N=CN[C@H]2c2ccc(O)cc2)cc1	1.7	–

Results, then the compound that gave them:

Control [1] [%]	EC50 (Estrogen receptor) [µM]	Structure (SMILES)
42.9	1.8	Oc1ccc([C@H]2N=CN[C@H]2c2ccc(O)cc2I)c(I)c1
20.9	–	Oc1ccc([C@H]2N=CN[C@H]2c2ccc(O)cc2F)c(F)c1
